Series [1] has as its system A431 cells. The procedure: A431 cells were seeded at a density of 1×10^5 cells/ml in 96 well plates and incubated under 2% O2 for 48 h prior to treatment. After 24 h, the culture medium was replaced and the cells were placed back into the incubators under 2% O2. Following this incubation period, the culture medium was then removed and the plates were washed with PBS. The cells were then treated with 1 mM MAL in the absence or presence of one of the compounds of interest and then incubated again at 2% O2 for 3 h. For experiments carried out with SRHDs, this treatment step was carried out for 5 h at 2% O2. After treatment, the cells were washed with PBS, the culture medium was replaced and the cells were placed back under 2% O2 for 3 h. Following this final incubation, cell death was analysed using the resazurin viability assay.
Resazurin (7-hydroxy-3H-phenoxazin-3-one 0-oxide) is a weakly fluorescent blue dye used primarily in oxidation-reduction cell viability assays. Irreversible NADH-dependent reduction by the mitochondria in mammalian cells leads to the production of resorufin, a highly fluorescent product with excitation at 571 nm, emission at 585 nm.
A431 cells were seeded into 96 well plates at a density of 1.5*10^6 cells per ml (200 μl per well, 3*10^5 cells) and incubated for 24 h to adhere. Following incubation, the cells were washed and treated with the compound of interest for the relevant time, and then washed with PBS. […] After a 2 h incubation, the fluorescence of each well was measured (excitation: 571 nm, emission: 585 nm) using a fluorescence plate reader. Data from these experiments was plotted as a percentage of cell viability compared to untreated control cells.

In series [2] the test system is A431 cells. The series is described as follows: Photodynamic cell killing in the presence of inhibitors of the thioredoxin antioxidant system or nitroxides (annexin V-FITC/propidium iodide flow cytometry). It is filed as cell-based, human. The conditions noted are these: for cell death: 3 h, irradiation; for potentiating effect on MAL photodynamic cell killing: summary of Examples 2A, 3A. The procedure: After this treatment, the cells were irradiated for 5 min (630 nm, 25 J/cm^2), then washed with PBS and the culture medium was replaced, after which the cells were placed back under 2% O2 and incubated for a further 3 h. Following this final incubation, cell death was analysed by annexin V-FITC and propidium iodide staining in conjunction with flow cytometry.
Cell death analysis by flow cytometry was carried out using the annexin V-FITC/propidium iodide protocol. This protocol allows a quantitative assessment of cell death, particularly specific modes of death, and involves staining the cells with fluorescein isothiocyanate-conjugated annexin A5 (annexin V-FITC) and propidium iodide (PI). Positive staining with annexin V-FITC alone indicates an apoptotic cell; positive staining with PI alone indicates a necrotic cell and dual staining of both annexin V and PI indicates a “late apoptotic” cell.
From each flask being assessed, the old medium was removed and placed into a corresponding individual 15 ml Falcon tube in order to collect any cells that may have detached from the surface. The flask was washed once with 1 ml PBS; also deposited in the Falcon tubes. Trypsin (500 μl) was added to each flask and the flasks were returned to the incubator with their caps loosened. Cell detachment was monitored using an inverted light microscope, until 50% of the cells were detached. The flasks were then lightly tapped to detach the remainder of the cells. Medium (2 ml) was added to each flask in order to neutralise the trypsin present before being removed and dispensed into the Falcon tubes. One more wash with PBS was carried out in order to ensure any cells left in the flasks were collected. The Falcon tubes were then centrifuged at 490 g for 3 min, forming a pellet at the bottom of the tube. The supernatant was discarded, and the cells were re-suspended in 5 ml of PBS, in order to wash them, before being centrifuged again at 490 g for 3 min. The wash stage was carried out once more before re-suspending the cell pellet in 95 μl of ice cold calcium (Ca^2+) buffer (50 mM HEPES, 700 mM NaCl, 12.5 mM CaCl2, pH 7.4) and adding 5 μl 12.5 μg/ml of annexin V-FITC (final concentration, 1.25 μg/ml), under reduced light conditions to prevent bleaching of the FITC. The Falcon tubes were placed on ice and in the dark for 15 min to allow annexin V staining. After 15 min, 860 μl of Ca^2+ buffer (10 mM Hepes adjusted to pH 7.4, 140 mM NaCl and 2.5 mM CaCl2) was added, followed by 40 μl of 1 mg/ml PI in water (final concentration, 0.04 mg/ml) to give a final volume of 1 ml. The samples were then ready to be assessed by flow cytometry.
The following flow cytometry process of sample detection was used. When using annexin V-FITC and PI, the detectors being used were FL1 (λmax=520 nm) and FL3 (λmax=670 nm), respectively, each with their own logarithmic histogram generated by the software. The intensity of the fluorescence detected is measured on a logarithmic scale on the x-axis and the y-axis represents the number of cells detected at a given fluorescence intensity. A plot of FL1/FL3 produces a 4-quadrant graph, where unstained and untreated cells are located in the bottom left quadrant, representing any cells found in the 1st decade of the single plot logarithmic histograms. Single staining with annexin V-FITC and PI are located in the bottom right and top left quadrant, respectively, and dual staining is located in the top right quadrant. These quadrants represent any cells detected above the 1st decade of the logarithmic histograms.
Background: In flow cytometry, cells or beads pass a laser one at a time.

The subject of series [3] is A431 cells. As to the kind of experiment: Mitochondrial reactive oxygen species generation during photodynamic irradiation, MitoSOX flow cytometry. Format: cell-based, human. The conditions noted are these: 3 hours, irradiated. The procedure:
A431 cells were treated concurrently with AP39-C10 (10, 100 or 1000 nM) for 5 hours, MAL (1 mM) for 3 hours and MitoSOX (2.5 μM) for 1 hour, after which they were irradiated for 5 min (630 nm, 25 J/cm^2) and MitoSOX (mito-2-OH-E^+) fluorescence, indicative of mitochondrial oxidant production, was immediately analysed by flow cytometry. Results are set out in FIG. 23.
Mitochondria-targeted dihydroethidium (i.e. MitoSOX) was used to assess the production of mitochondrial reactive oxygen species (ROS) by PpIX photochemical reactions and to determine the effects of AP39-C10 on this process. All of the results are represented as a percentage of the untreated controls (100.0±8.5%). The fluorescence of the photoirradiated cells, which had been pre-treated with MAL, was 193.7±7.3% (p<0.001 c.f. untreated controls).

In series [4] the test system is A431 cells. The series is described as follows: MAL-induced PpIX accumulation, fluorescence plate reader. It is filed as cell-based, human. Particulars: for PpIX accumulation, percentage of the MAL alone treatment: FIG. 38; for effect on PpIX fluorescence: 0.01 mM + 1 mM MAL; for increase in PpIX fluorescence: 1 mM + 1 mM MAL.
Where [5] appears, read: 1 mM MAL + co-treatment 1 mM (1000 μM).
Setting [6] is: 1 mM MAL + nitroxide 1 mM (MitoTEMPO 50 μM) + irradiation, FIG. 13, 34.
Setting [7] is: MAL 1 mM + co-treatment 1 mM (1000 μM).

We go through three compounds from patent US10149907B2, “Combinations of a photosensitizer with a hydrogen sulfide donor, thioredoxin inhibitor or nitroxide for use in photodynamic therapy” (UNIVERSITY OF EXETER, priority 2014, dated 2018).

Values joined by “and” are separate entries in the source; they are usually repeats but may differ in a detail not shown here. Equal values may be shown once. “Also recorded” adds a separate entry of the source. Read-outs that look alike come from different tables or passages of the source.

Take `CC1(C)CCCC(C)(C)N1[O]` [TEMPO, 2,2,6,6-tetramethyl-1-piperidinyloxy]: the “cell viability, percentage of untreated control” value (“cell viability, percentage” for short) in the series on A431 cells [1] (0.25 mM with 1 mM MAL, 3 hours) was found to be 97.8±3.4%; in the series on A431 cells [1] (0.5 mM with 1 mM MAL, 3 hours), 97.5±1.7%; with A431 cells [1] (1 mM with 1 mM MAL, 3 hours), 98.6±6.8%; with A431 cells [1] (2 mM with 1 mM MAL, 3 hours) it was 97.4±6.2%; in the series on A431 cells [1] (5 mM with 1 mM MAL, 3 hours), 92.9±6.6%; with A431 cells [1] (10 mM with 1 mM MAL, 3 hours) it was 79.9±8.5%. The “cell viability, percentage” value came out at 64.9±0.1% in the series on A431 cells [1] (10 mM, 24 hours) and 8.5±0.2% in the series on A431 cells [1] (50 mM, 24 hours). Also, the cell death in the series on A431 cells [2] (setting [5]) is 52.0±8.3% and 46.3±3.6%. Besides, in the series on A431 cells [2] (setting [6]), the “modes of cell death” value is “an increase in apoptotic and late apoptotic cell death; also recorded: a further increase in late apoptosis and necrosis with little effect on apoptotic cell death”. Further, the “potentiating effect on MAL photodynamic cell killing” value (shortened to “potentiating effect”) with A431 cells [2] is reported as “more robust potentiating effect”. For the same compound, the “MitoSOX fluorescence, percentage of untreated cells” value (shortened to “MitoSOX fluorescence, percentage”) with A431 cells [3] (setting [7]) is 418.8±6.3%. Moreover, the “PpIX accumulation, percentage of the MAL alone treatment” value (“PpIX accumulation, percentage” below) with A431 cells [4] (10 μM + MAL 1 mM, 3 hours) came to 100.3±3.8%; in the series with A431 cells [4] (100 μM + MAL 1 mM, 3 hours), 127.0±3.3%; in the series with A431 cells [4] (1000 μM + MAL 1 mM, 3 hours) it was 159.2±4.1%. In the series on A431 cells [4] (3 h), the “effect on PpIX fluorescence” value is reported as “increased PpIX fluorescence slightly, but this was not statistically significant”. Moreover, the “increase in PpIX accumulation compared to MAL alone” value with A431 cells [4] (50 μM + MAL 1 mM, 3 hours, FIG. 35) is reported as 0.0±4.9%. For the same compound, the “increase in PpIX fluorescence” value with A431 cells [4] (3 h) is approximately 2 fold. Further, the “peak response, increase in PpIX accumulation compared to MAL alone” value with A431 cells [4] (peak at TEMPO 5 mM, MitoTEMPO 100 μM, CP94 100 μM, MAL 1 mM, 3 hours) was 138.1±10.5%.
Consider `CC1(C)CC(O)CC(C)(C)N1[O]` [TEMPOL, 4-hydroxy-2,2,6,6-tetra methylpiperidine 1-oxyl], for which the “cell viability, percentage” value with A431 cells [1] (0.25 mM with 1 mM MAL, 3 hours) worked out at 99.3±4.4%; in the series on A431 cells [1] (0.5 mM with 1 mM MAL, 3 hours) it was 102.0±3.6%; with A431 cells [1] (1 mM with 1 mM MAL, 3 hours), 99.8±2.9%; in the series on A431 cells [1] (2 mM with 1 mM MAL, 3 hours), 104.2±3.3%; in the series with A431 cells [1] (5 mM with 1 mM MAL, 3 hours), 116.2±2.7%; with A431 cells [1] (10 mM with 1 mM MAL, 3 hours) it was 77.8±4.7%. Also, the “modes of cell death” value in the series on A431 cells [2] (1 mM MAL + TEMPOL, dependent on concentration + irradiation, FIG. 37) was “an increase in apoptosis and late apoptosis, with smaller increases in necrosis also observed”; with A431 cells [2] (setting [6]), “an increase in late apoptotic and necrotic cell death; also recorded: a further increase in late apoptosis and necrosis with little effect on apoptotic cell death”. The cell death was 40.5±4.1% in the series on A431 cells [2] (1 mM MAL + co-treatment 10 μM); 48.5±7.4% with A431 cells [2] (1 mM MAL + co-treatment 100 μM); 50.8±6.8% and 69.3±3.1% with A431 cells [2] (setting [5]). For the same compound, in the series on A431 cells [2], the “potentiating effect” value was “more robust potentiating effect”. Also, the “MitoSOX fluorescence, percentage” value in the series on A431 cells [3] (MAL 1 mM + co-treatment 10 μM) is 99.4±5.44%; in the series on A431 cells [3] (MAL 1 mM + co-treatment 100 μM) it was 226.5±19.4%; with A431 cells [3] (setting [7]) it was 253.3±6.3% and 316.8±1.6%. Moreover, the “PpIX accumulation, percentage” value stood at 109.0±2.7% in the series on A431 cells [4] (10 μM + MAL 1 mM, 3 hours); 141.2±4.2% with A431 cells [4] (100 μM + MAL 1 mM, 3 hours); 209.2±5.1% in the series on A431 cells [4] (1000 μM + MAL 1 mM, 3 hours). The “effect on PpIX fluorescence” value in the series on A431 cells [4] (3 h) is recorded as “increased PpIX fluorescence slightly, but this was not statistically significant”. In the series with A431 cells [4] (0.1 mM and 1 mM + 1 mM MAL, 3 h), the “effect on PpIX accumulation” value is listed as “significantly increased PpIX accumulation further”. The “increase in PpIX fluorescence” value in the series with A431 cells [4] (3 h) is reported as approximately 2 fold.
`CC1(C)CC(=O)CC(C)(C)N1[O]` [TEMPONE]: the “cell viability, percentage” value with A431 cells [1] (10 mM, 24 hours) was 80.3±13.3%; in the series with A431 cells [1] (50 mM, 24 hours), 53.7±13.3%. Besides, the cell death with A431 cells [2] (setting [5]) was determined as 37.9±2.3%. Moreover, the “modes of cell death” value with A431 cells [2] (setting [6]) was “a further increase in late apoptosis and necrosis with little effect on apoptotic cell death”. Besides, the “potentiating effect” value with A431 cells [2] is recorded as “mild potentiating effect”. In addition, the “MitoSOX fluorescence, percentage” value in the series on A431 cells [3] (setting [7]) amounted to 226.4±6.8%. The “PpIX accumulation, percentage” value in the series on A431 cells [4] (10 μM + MAL 1 mM, 3 hours) was found to be 100.3±4.0%; in the series on A431 cells [4] (100 μM + MAL 1 mM, 3 hours), 123.8±2.5%; with A431 cells [4] (1000 μM + MAL 1 mM, 3 hours), 160.2±3.2%.
